Measured values reported in the supplement of paper PMC10307832.

Legend:
Test in all cases: relative viability (nuclei count vs DMSO), 5 days (fraction); higher = more cells survive
Vismodegib + OSI-027 = compound: CS(=O)(=O)c1ccc(C(=O)Nc2ccc(Cl)c(-c3ccccn3)c2)c(Cl)c1 [Vismodegib] + COc1cccc2cc(-c3nc([C@H]4CC[C@H](C(=O)O)CC4)n4ncnc(N)c34)[nH]c12 [OSI-027] (partner 0.5 µM)
Procedure, shortened: (§1)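 Lung cancer cell lines in 1536-well plates were dosed by pin tool the day after seeding, either with one drug alone or with a fixed anchor-drug dose plus five library-drug doses (not always all listed) in √10 steps. After 5 days, cells were fixed and their nuclei stained in one step (final 0.05% Triton X-100, 1% formaldehyde, 1 ug/ml Hoechst), then counted on 4× images. Relative viability is the nuclei count in treated wells divided by that in vehicle wells. Values are medians of duplicate plates.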

Ruxolitinib + Vorinostat = compound: N#CC[C@H](C1CCCC1)n1cc(-c2ncnc3[nH]ccc23)cn1 [Ruxolitinib] + O=C(CCCCCCC(=O)Nc1ccccc1)NO [Vorinostat] (partner 1 µM)
Procedure, shortened: as §1

VE-821 + Tozasertib = compound: CS(=O)(=O)c1ccc(-c2cnc(N)c(C(=O)Nc3ccccc3)n2)cc1 [VE-821] + Cc1cc(Nc2cc(N3CCN(C)CC3)nc(Sc3ccc(NC(=O)C4CC4)cc3)n2)n[nH]1 [Tozasertib] (partner 0.1 µM)
Procedure, shortened: as §1

Ruxolitinib + Pictilisib = compound: N#CC[C@H](C1CCCC1)n1cc(-c2ncnc3[nH]ccc23)cn1 [Ruxolitinib] + CS(=O)(=O)N1CCN(Cc2cc3nc(-c4cccc5[nH]ncc45)nc(N4CCOCC4)c3s2)CC1 [Pictilisib] (partner 1 µM)
Procedure, shortened: as §1

Cell Line | relative viability (Vismodegib + OSI-027; first compound 0.08 µM) | relative viability (Vismodegib + OSI-027; first compound 0.253 µM) | relative viability (Vismodegib + OSI-027; first compound 0.8 µM) | relative viability (Vismodegib + OSI-027; first compound 2.53 µM) | relative viability (Vismodegib + OSI-027; first compound 8 µM) | relative viability (Ruxolitinib + Vorinostat; first compound 0.08 µM) | relative viability (Ruxolitinib + Vorinostat; first compound 0.253 µM) | relative viability (Ruxolitinib + Vorinostat; first compound 0.8 µM) | relative viability (Ruxolitinib + Vorinostat; first compound 2.53 µM) | relative viability (Ruxolitinib + Vorinostat; first compound 8 µM) | relative viability (VE-821 + Tozasertib; first compound 0.08 µM) | relative viability (VE-821 + Tozasertib; first compound 0.253 µM) | relative viability (VE-821 + Tozasertib; first compound 0.8 µM) | relative viability (VE-821 + Tozasertib; first compound 2.53 µM) | relative viability (VE-821 + Tozasertib; first compound 8 µM) | relative viability (Ruxolitinib + Pictilisib; first compound 0.08 µM) | relative viability (Ruxolitinib + Pictilisib; first compound 0.253 µM) | relative viability (Ruxolitinib + Pictilisib; first compound 0.8 µM) | relative viability (Ruxolitinib + Pictilisib; first compound 2.53 µM) | relative viability (Ruxolitinib + Pictilisib; first compound 8 µM)
NCI-H2085 | 0.9 | 0.732 | 0.756 | 0.74 | 0.662 | 0.865 | 0.802 | 0.891 | 0.667 | 0.695 | 0.875 | 0.759 | 0.494 | 0.459 | 0.368 | 0.564 | 0.469 | 0.419 | 0.463 | 0.611
NCI-H2087 | 0.645 | 0.476 | 0.398 | 0.618 | 0.39 | 0.868 | – | 0.752 | 0.686 | 0.705 | 0.241 | 0.204 | 0.248 | 0.212 | 0.198 | 0.798 | 0.937 | 0.645 | 0.335 | 0.842
NCI-H2126 | 0.793 | 0.759 | – | 0.69 | 0.604 | 0.771 | 0.755 | 0.853 | 0.843 | 0.847 | 0.911 | 0.911 | 0.671 | 0.703 | 0.518 | 0.493 | 0.472 | 0.531 | 0.55 | 0.582
NCI-H2170 | 0.658 | 0.609 | 0.686 | 0.723 | 0.699 | 0.804 | 0.796 | 0.889 | 0.794 | 0.65 | 0.744 | 0.727 | 0.662 | 0.794 | 0.477 | 0.36 | 0.28 | 0.418 | 0.303 | 0.253
NCI-H2228 | 0.7 | 0.636 | 0.587 | 0.532 | 0.467 | 0.595 | 0.717 | 0.9 | 0.69 | 0.37 | 0.312 | 0.2 | 0.212 | 0.256 | 0.156 | 0.584 | 0.362 | 0.365 | 0.255 | 0.246
NCI-H2347 | 0.568 | 0.454 | 0.304 | 0.425 | 0.454 | 0.68 | 0.546 | 0.568 | 0.566 | 0.622 | 0.506 | 0.6 | 0.272 | 0.498 | 0.506 | 0.437 | 0.637 | 0.554 | 0.485 | 0.674
NCI-H2405 | 0.621 | 0.615 | 0.573 | 0.621 | 0.639 | 1 | 0.957 | 1.05 | 1.19 | 0.743 | 0.824 | 0.714 | 0.713 | 0.726 | 0.742 | – | 0.338 | 0.463 | 0.286 | 0.269
NCI-H3122 | 0.971 | 0.863 | 0.84 | 0.849 | 0.981 | 0.886 | 1.12 | 1.13 | 0.962 | 1.02 | 0.389 | 0.383 | 0.369 | 0.418 | 0.306 | 0.538 | 0.509 | 0.552 | 0.357 | 0.562
PC-3 [JPC-3] | 0.823 | 0.756 | 0.718 | 0.728 | 0.673 | – | 0.778 | 0.809 | 0.875 | 0.696 | 0.956 | 0.819 | 0.881 | 0.805 | 0.787 | 0.507 | 0.752 | 0.763 | 0.678 | 0.7
PC-14 | 0.748 | 0.686 | 0.797 | 0.738 | 0.836 | – | 0.788 | 1.05 | 0.658 | 0.652 | 0.592 | 0.585 | 0.483 | 0.531 | 0.54 | – | 0.618 | 0.799 | 0.654 | 0.476
RERF-LC-KJ | 0.678 | 0.568 | 0.621 | 0.593 | 0.487 | 0.73 | 0.859 | 0.841 | 0.867 | 0.66 | 0.539 | 0.478 | 0.483 | 0.349 | 0.274 | 0.517 | 0.447 | 0.656 | 0.53 | 0.393
SK-LU-1 | 0.414 | 0.39 | 0.384 | 0.401 | 0.345 | 0.763 | 0.856 | 0.747 | 0.805 | 0.53 | 0.383 | 0.286 | 0.274 | 0.208 | 0.193 | 0.657 | 0.723 | 0.538 | 0.607 | 0.638
SK-MES-1 | 0.729 | 0.576 | 0.598 | 0.59 | 0.577 | 1.19 | 1.07 | 1.01 | 0.968 | 0.949 | 0.968 | 0.818 | 0.828 | 0.561 | 0.325 | 0.268 | 0.337 | 0.359 | 0.394 | 0.335
SW 1573 | 0.742 | 0.595 | 0.682 | 0.521 | 0.574 | 0.927 | 1.08 | 0.995 | 0.584 | 0.727 | 0.164 | 0.174 | 0.181 | 0.216 | 0.197 | 0.495 | 0.425 | 0.546 | 0.445 | 0.429
